Assay results published in patent US20240287124A1, “PRODRUGS OF 4'-SUBSTITUTED NUCLEOSIDE REVERSE TRANSCRIPTASE INHIBITORS” (Merck Sharp & Dohme LLC, priority 2023, published 2024).

Tested on: not listed separately
Assay: Aqueous solubility in PBS, pH 7.4
Format: physicochemical
Conditions: phosphate buffered saline, pH 7.4, aqueous buffer, thermodynamic from solid, pH 7.4 phosphate buffered saline, 24 hours, amorphous or crystalline material; read-out: Aqu. Solubility
Method: Aqueous solubility of the compounds was determined by suspending excess solid (typically 0.3-0.5 mg) in PBS, pH 7.4, at a concentration of 0.5 mg/mL. The suspension was vortexed for 10-30 seconds to wet the material and stirred at 600 rpm for 24 hours. For analysis by UPLC, 150 μL aliquot sample was transferred into a […] PVDF spin filter and centrifuged at 14,000 rpm for 5 minutes. 100 μL of the filtrate was diluted with 100 μL 1:1 Acetonitrile (ACN):H2O. The resultant samples were analyzed using UPLC and quantified against a standard curve of the compound of interest dissolved in 1:1 ACN:H2O. The retains of the solids were checked by XRPD and PLM to determine if the phase of the material was crystalline or amorphous.

Q: With `C#C[C@]1(CO)O[C@@H](n2ccc3c(N)nc(Cl)nc32)C[C@@H]1OC(=O)Cc1ccc(Br)cc1` [Example 181] as the molecule, how does the solubility at 24 h read?
A: < 1 µg/mL

Q: With `C#C[C@]1(CO)O[C@@H](n2ccc3c(N)nc(Cl)nc32)C[C@@H]1OC(=O)OCCCCC[C@@H]1SC[C@@H]2NC(=O)N[C@@H]21` [Example 160] as the molecule, how does the solubility at 24 h read?
A: < 1 µg/mL

Q: For `C#C[C@]1(COC(=O)OCCCCCCCC)O[C@@H](n2ccc3c(N)nc(Cl)nc32)C[C@@H]1OC(=O)CC` [Example 113], which solubility at 24 h is on record?
A: < 1 µg/mL

Tested on: HIV-1 wild-type (R8) virus
Assay: Viral KINetics in Green cells (VIKING) assay, HIV-1 replication in MT4-GFP reporter cells
Format: cell-based
Conditions: Human immunodeficiency virus 1, 10% normal human serum, MT4-GFP cells, HIV-1 wild-type (R8); read-out: Viking (10% NHS), IC50
Method: Antiviral potency of the compounds was determined based on their ability to block HIV-1 replication in a GFP reporter cell line; this assay is referred to as Viral KINetics in Green cells or VIKING assay. HIV-1 replication was monitored using MT4-gag-GFP clone D3 (hereafter designate MT4-GFP) cells, which are MT4 cells modified to harbor a GFP reporter gene, the expression of which is dependent on the HIV-1 proteins tat and rev. (MT4 is a human T-cell line that is particularly sensitive to HIV-1 replication.) HIV-1 infection of MT4-GFP cells results in GFP expression approximately 24 h post-infection. MT4-GFP cells were maintained at 37° C./5% CO2/90% relative humidity in RPMI 1640 supplemented with 10% fetal bovine serum, 100 U/mL penicillin/streptomycin, and […] G418 to maintain the reporter gene. For infections, MT4-GFP cells were placed in the same medium lacking G418 and infected overnight with HIV-1 wild-type (R8) virus at an approximate multiplicity of infection of 0.01 in the same incubation conditions. Cells were then washed and resuspended in RPMI 1640 containing 10% normal human serum at 2×10^5 cells/mL. Compound plates were prepared by dispensing compounds dissolved in DMSO into wells of 384-well poly D lysine-coated plates (0.2 μl/well) using an ECHO acoustic dispenser. Each compound was tested in a 10-point serial 3-fold dilution (typical final concentrations: 4 μM-0.2 nM). Controls included no inhibitor (DMSO only) and a combination of three antiviral agents as a positive control (efavirenz, indinavir, and an integrase strand transfer inhibitor at final concentrations of 4 μM each). Infected cells were added (50 μL/well) to compound plates and were maintained at 37° C./5% CO2/90% relative humidity. Infected cells were quantified at two time points, approximately 48 h and 72 h post-infection, by counting the number of green cells in each well using an Acumen eX3 scanner. The increase in the number of green cells over ˜24 h period gives the reproductive ratio, R, which is calculated by dividing the number of green cells at 72 h over those at 48 h post-infection. The percent inhibition caused by a test compound is calculated using the following formula: […]
The dose-response curves of each test compound were plotted as % inhibition versus the compound concentration. IC50 values were determined by non-linear 4-parameter fitting of the dose-response curves.

Q: Which IC50 does the source give for `C#C[C@]1(CO)O[C@@H](n2ccc3c(N)nc(Cl)nc32)C[C@@H]1OC(=O)Cc1ccc(Br)cc1` [Example 181] here?
A: 4 nM

Q: Which IC50 does the source give for `C#C[C@]1(CO)O[C@@H](n2ccc3c(N)nc(Cl)nc32)C[C@@H]1OC(=O)OCCCCC[C@@H]1SC[C@@H]2NC(=O)N[C@@H]21` [Example 160] here?
A: 11 nM

Q: Which IC50 does the source give for `C#C[C@]1(COC(=O)OCCCCCCCC)O[C@@H](n2ccc3c(N)nc(Cl)nc32)C[C@@H]1OC(=O)CC` [Example 113] here?
A: 26 nM

Q: Which IC50 does the source give for `C#C[C@]1(COC(=O)OCc2ccn(C)c(=O)c2)O[C@@H](n2ccc3c(N)nc(Cl)nc32)C[C@@H]1OC(=O)OCc1ccccc1` [Example 162] here?
A: 8.9 nM

Q: Which IC50 does the source give for `C#C[C@]1(COC(=O)CCCCCCCC)O[C@@H](n2ccc3c(N)nc(Cl)nc32)C[C@@H]1O` [Example 118] here?
A: 4.3 nM

Q: Which IC50 does the source give for `C#C[C@]1(CO)O[C@@H](n2ccc3c(N(C(=O)OCCCCCCCCCCCC)C(=O)OCCCCCCCCCCCC)nc(Cl)nc32)C[C@@H]1O` [Example 218] here?
A: > 4030 nM

Q: With `C#C[C@]1(COC(=O)OCCCCC[C@@H]2SC[C@@H]3NC(=O)N[C@@H]32)O[C@@H](n2ccc3c(N)nc(Cl)nc32)C[C@@H]1O` [Example 132] as the molecule, how does the IC50 read?
A: 3 nM

Q: Which IC50 does the source give for `C#C[C@]1(CO)O[C@@H](n2ccc3c(N)nc(Cl)nc32)C[C@@H]1OC(=O)OC` [Example 157] here?
A: 20 nM

Q: For `C#C[C@]1(COC(=O)CC23CC(C2)C3)O[C@@H](n2ccc3c(N)nc(Cl)nc32)C[C@@H]1OC(=O)OCCC12CC3CC(CC(C3)C1)C2` [Example 108], which IC50 is on record?
A: 20 nM

Q: Which IC50 does the source give for `C#C[C@]1(CO)O[C@@H](n2ccc3c(NC(=O)CCC45CC6CC(CC(C6)C4)C5)nc(Cl)nc32)C[C@@H]1O` [Example 69, 3-(adamantan-1-yl)-N-(2-chloro-7-((2R,4S,5R)-5-ethynyl-4-hydroxy-5-(hydroxymethyl)tetrahydrofuran-2-yl)-7H-pyrrolo[2,3-d]pyrimidin-4-yl)propanamide] here?
A: 10 nM

Q: For `C#C[C@]1(CO)O[C@@H](n2ccc3c(NC(=O)OCCCCCCCC)nc(Cl)nc32)C[C@@H]1O` [Example 223], which IC50 is on record?
A: 411 nM

Q: Which IC50 does the source give for `C#C[C@]1(CO)O[C@@H](n2ccc3c(N)nc(Cl)nc32)C[C@@H]1OC(=O)OCCC12CC(C1)C2` [Example 111] here?
A: 5.2 nM

Q: With `C#C[C@]1(CO)O[C@@H](n2ccc3c(NC(=O)CCCCCCC)nc(Cl)nc32)C[C@@H]1O` [Example 66, N-(2-chloro-7-((2R,4S,5R)-5-ethynyl-4-hydroxy-5-(hydroxymethyl)tetrahydrofuran-2-yl)-7H-pyrrolo[2,3-d]pyrimidin-4-yl)octanamide] as the molecule, how does the IC50 read?
A: 197 nM

Q: For `C#C[C@]1(COC(=O)CC(C)(C)c2c(C)cc(C)cc2OC(C)=O)O[C@@H](n2ccc3c(N)nc(Cl)nc32)C[C@@H]1O` [Example 183], which IC50 is on record?
A: 2.7 nM

Q: With `C#C[C@]1(COC(=O)OCc2ccccc2)O[C@@H](n2ccc3c(N)nc(Cl)nc32)C[C@@H]1OC(=O)CCCC[C@@H]1SC[C@@H]2NC(=O)N[C@@H]21` [Example 195] as the molecule, how does the IC50 read?
A: 40 nM

Q: Which IC50 does the source give for `C#C[C@]1(CO)O[C@@H](n2ccc3c(N)nc(Cl)nc32)C[C@@H]1OC(=O)OCc1cccn(C)c1=O` [Example 67, (2R,3S,5R)-5-(4-amino-2-chloro-7H-pyrrolo[2,3-d]pyrimidin-7-yl)-2-ethynyl-2-(hydroxymethyl)tetrahydrofuran-3-yl ((1-methyl-2-oxo-1,2-dihydropyridin-3-yl)methyl) carbonate] here?
A: 6.4 nM

Q: Which IC50 does the source give for `C#C[C@]1(COC(=O)OCCCCCCCC)O[C@@H](n2ccc3c(N)nc(Cl)nc32)C[C@@H]1OC(C)=O` [Example 112] here?
A: 28 nM

Q: For `C#C[C@]1(COC(=O)C23CC(C2)C3)O[C@@H](n2ccc3c(N)nc(Cl)nc32)C[C@@H]1OC(=O)OCCC12CC3CC(CC(C3)C1)C2` [Example 109], which IC50 is on record?
A: 21 nM

Q: With `C#C[C@]1(CO)O[C@@H](n2ccc3c(N)nc(Cl)nc32)C[C@@H]1OC(=O)OCc1cccnc1` [Example 166] as the molecule, how does the IC50 read?
A: 6.7 nM

Q: Which IC50 does the source give for `C#C[C@]1(COC(=O)[C@H](C)c2ccccc2)O[C@@H](n2ccc3c(N)nc(Cl)nc32)C[C@@H]1OC(=O)[C@H](C)c1ccccc1` [Example 98] here?
A: 91 nM

Q: Which IC50 does the source give for `C#C[C@]1(CO)O[C@@H](n2ccc3c(NC(=O)CCCc4ccccc4)nc(Cl)nc32)C[C@@H]1O` [Example 198] here?
A: 63 nM

Q: With `C#C[C@]1(COC(=O)OCc2cccn(C)c2=O)O[C@@H](n2ccc3c(N)nc(Cl)nc32)C[C@@H]1OC(=O)OCc1ccccc1` [Example 93] as the molecule, how does the IC50 read?
A: 7.8 nM

Q: With `C#C[C@]1(COC(=O)OCc2ccc[nH]c2=O)O[C@@H](n2ccc3c(N)nc(Cl)nc32)C[C@@H]1OC(=O)OCc1ccc[nH]c1=O` [Example 205] as the molecule, how does the IC50 read?
A: 4 nM

Q: For `C#C[C@]1(CO)O[C@@H](n2ccc3c(NC(=O)OCC4CCCCC4)nc(Cl)nc32)C[C@@H]1O` [Example 150], which IC50 is on record?
A: 740 nM

Q: For `C#C[C@]1(COC(=O)C23CC(C2)C3)O[C@@H](n2ccc3c(N)nc(Cl)nc32)C[C@@H]1OC(=O)C12CC(C1)C2` [Example 104], which IC50 is on record?
A: 4.1 nM

Q: Which IC50 does the source give for `C#C[C@]1(CO)O[C@@H](n2ccc3c(N(C(=O)CCC45CC6CC(CC(C6)C4)C5)C(=O)CCC45CC6CC(CC(C6)C4)C5)nc(Cl)nc32)C[C@@H]1O` [Example 217] here?
A: > 4030 nM

Q: With `C#C[C@]1(COC(=O)OCc2cccnc2)O[C@@H](n2ccc3c(N)nc(Cl)nc32)C[C@@H]1OC(=O)OCc1ccccc1` [Example 85] as the molecule, how does the IC50 read?
A: 3.2 nM

Q: Which IC50 does the source give for `C#C[C@]1(COC(=O)OCc2cc[nH]c(=O)c2)O[C@@H](n2ccc3c(N)nc(Cl)nc32)C[C@@H]1O` [Example 130] here?
A: 2.9 nM

Q: For `C#C[C@]1(CO)O[C@@H](n2ccc3c(N)nc(Cl)nc32)C[C@@H]1OC(=O)C12CC(C1)C2` [Example 105], which IC50 is on record?
A: 3.5 nM

Q: For `C#C[C@]1(CO)O[C@@H](n2ccc3c(N)nc(Cl)nc32)C[C@@H]1OC(=O)OCC` [Example 155], which IC50 is on record?
A: 29 nM

Q: For `C#C[C@]1(COCOC(=O)c2ccccc2)O[C@@H](n2ccc3c(N)nc(Cl)nc32)C[C@@H]1OCOC(=O)c1ccccc1` [Example 137], which IC50 is on record?
A: 4.5 nM

Q: With `C#C[C@]1(CO)O[C@@H](n2ccc3c(N)nc(Cl)nc32)C[C@@H]1OC(=O)OCC12CC(C1)C2` [Example 110] as the molecule, how does the IC50 read?
A: 2.7 nM

Q: Which IC50 does the source give for `C#C[C@]1(COCOC(=O)c2ccccc2)O[C@@H](n2ccc3c(N)nc(Cl)nc32)C[C@@H]1OC(=O)c1ccccc1` [Example 138] here?
A: 41 nM

Q: With `C#C[C@]1(CO)O[C@@H](n2ccc3c(NC(=O)OCc4ccccc4)nc(Cl)nc32)C[C@@H]1O` [Example 72, benzyl (2-chloro-7-((2R,4S,5R)-5-ethynyl-4-hydroxy-5-(hydroxymethyl)tetrahydrofuran-2-yl)-7H-pyrrolo[2,3-d]pyrimidin-4-yl)carbamate] as the molecule, how does the IC50 read?
A: 544 nM

Q: With `C#C[C@]1(COC(=O)CCCC)O[C@@H](n2ccc3c(N)nc(Cl)nc32)C[C@@H]1OC(=O)CC` [Example 187] as the molecule, how does the IC50 read?
A: 27 nM

Q: For `C#C[C@]1(COC(=O)OCc2cccnc2)O[C@@H](n2ccc3c(N)nc(Cl)nc32)C[C@@H]1OC(=O)OCC` [Example 172], which IC50 is on record?
A: 25 nM

Q: For `C#C[C@]1(CO)O[C@@H](n2ccc3c(NC(=O)OCCCCC[C@@H]4SC[C@@H]5NC(=O)N[C@@H]54)nc(Cl)nc32)C[C@@H]1O` [Example 151], which IC50 is on record?
A: 17 nM

Q: With `C#C[C@]1(COC(=O)OCc2ccccc2)O[C@@H](n2ccc3c(NC(=O)CCc4ccccc4)nc(Cl)nc32)C[C@@H]1O` [Example 202] as the molecule, how does the IC50 read?
A: 146 nM

Q: Which IC50 does the source give for `C#C[C@]1(COC(=O)OCc2ccccc2)O[C@@H](n2ccc3c(NC(=O)CCc4ccccc4)nc(Cl)nc32)C[C@@H]1OC(=O)OCc1ccccc1` [Example 203] here?
A: 47 nM

Q: For `C#C[C@]1(CO)O[C@@H](n2ccc3c(N)nc(Cl)nc32)C[C@@H]1OC(=O)OCc1cc[nH]c(=O)c1` [Example 159], which IC50 is on record?
A: 14 nM

Q: For `C#C[C@]1(CO)O[C@@H](n2ccc3c(N)nc(Cl)nc32)C[C@@H]1OCOC(=O)C(C)C` [Example 140], which IC50 is on record?
A: 5 nM

Q: For `C#C[C@]1(COC(=O)OCc2cccnc2)O[C@@H](n2ccc3c(N)nc(Cl)nc32)C[C@@H]1O` [Example 165], which IC50 is on record?
A: 4.9 nM

Q: Which IC50 does the source give for `C#C[C@]1(CO)O[C@@H](n2ccc3c(N(C(=O)OCCCCCC)C(=O)OCCCCCC)nc(Cl)nc32)C[C@@H]1O` [Example 222] here?
A: 1370 nM
